Measured values as given in patent US10426772B2, “Use of ergot alkaloids as an anthelmintic agent” (priority 2016, dated 2019).

Experiments:
[1] = target: T1, Sm.5HTR (Schistosoma mansoni, UniProt G4V5G4); format: cell-based; conditions: for potency (IC50) at Sm.5HTR, lower right quadrant of FIG. 13: inhibition of cAMP generation
Protocol: (§1) HEK293 cells (ATCC CRL-1573.3) were cultured in DMEM supplemented with 10% fetal bovine serum (FBS), penicillin (100 units/mL), streptomycin (100 μg/mL), and L-glutamine (290 μg/mL). Cells were transiently transfected (ViaFect, Promega) as per the manufacturer's protocol at a density of 2×10^6 cells per T-25 cell-culture flask. Cells were transfected with plasmids encoding GloSensor (Promega) and either Sm.5HTR, (Smp_126730, GenBank accession number KF444051.1) or Sm.5HTRL (KX150867), both GPCRs being codon optimized for mammalian expression, or Hs.5HT7a (GenBank accession number NM_000872.4, R&D Systems) subcloned into pCS2(−). Cell culture reagents were from Invitrogen. Epitope tagged constructs were used to verify expression, and untagged constructs used for all luminescence assays.
(§2) For assays performed on adherent cells, HEK-293 cells were transferred one day post transfection to 96 well, solid white plates (Corning, cat #3917) coated with 0.01% poly-L-lysine (Sigma Aldrich) at a density of 5×10^4 cells/well in DMEM supplemented with 1% dialyzed FBS (Gibco). After overnight culture (37° C./5% CO2), media was decanted and replaced with 100 μL/well HBSS supplemented with 0.1% BSA, 20 mM HEPES (pH 7.4) and GloSensor™ reagent. Plates were allowed to equilibrate at room temperature for two hours prior to performing luminescence assays (GloMax-Multi Detection System plate reader, Promega). Conditions for individual assays were described as per figure legends. The standard assay to detect changes in cAMP utilized the F22 sensor in media supplemented with IBMX (200 μM). Ligands were added at a concentration of 20× per well for experiments (i.e., 5 μl of drug solution added to 100 μL of cells). […] For the resazurin reduction assay for cellular viability, cells were incubated with resazurin (final concentration, 10 μM) and tested ligands with fluorescence measurements (560 nm excitation/590 nm emission) made at 1.5 hours intervals.
(§3) The protocol for screening is shown schematically in FIG. 5A. HEK293 cells transiently transfected with either the human 5HT7 receptor (Hs.5HT7R) or the schistosome receptor (Sm.5HTR) were exposed to test ligands in a 96-well plate format. […] Luminescence was then read at a fixed time point (t=60 minutes, FIG. 5A). Hits were assigned as compounds that evoked a ≥50% decrease in luminescence output at the fixed time sampling point (FIG. 5B).

[2] = target: T2, Hs.5HT7R (Homo sapiens, UniProt P34969); assay: GloSensor cAMP assay, HEK293 cells transiently transfected with Hs.5HT7R; format: cell-based; conditions: inhibition of cAMP generation
T2 construct: host or cells: HEK293 (ATCC CRL-1573.3), transient, pCS2(−), co-transfected with GloSensor
Protocol: as §1, §2, §3

[3] = system: S. mansoni schistosomules; assay: Schistosomule contractility assay; format: cell-based; conditions: Schistosoma mansoni; for IC50: read-out: IC50, inhibition of 5-HT evoked contractions
Protocol: FIGS. 14A-14F. […] Effects of selected ligands on schistosomules. […] A contractile cycle is defined when a deviation of ≥20% of the average body length (dashed lines) occurs.
Biomphalaria glabrata (M-line) snails exposed to Schistosoma mansoni miracidia (Strain PR-1) were obtained from BEI Resources (Cat. number NR-21961) and cercaria were shed following exposure to light (1.5 hours). Cercaria were manually transformed into schistosomula by vortexing (3×45 seconds, each separated by 3 minutes on ice) and tails were removed by gradient centrifugation (24 mL Percoll, 4 mL 10×EMEM, 1.5 ml penicillin-streptomycin, 1 mL of 1M HEPES in 0.85% NaCl, 9.5 ml distilled water) at 500 g/15 minutes at 4° C. Supernatant containing tails was discarded, and schistosomules were resuspended in Basch media and incubated (37° C., 5% CO2) overnight before conducting mobility assays. For contractility experiments, somules were incubated in 5-HT free Basch media to resolve a basal contractility rate. […] Schistosomules were incubated in 24 well plates (about 200 schistosomules/0.5 mL media per well) for 30 minutes (37° C./5% CO2) prior to acquiring videos of schistosome movement (1 minute recordings/well) using a Nikon Coolpix 5700 camera affixed to a Nikon Eclipse TS100 microscope (10× objective). The WrmTrck plugin for ImageJ was used to quantify worm mobility (El-Shehabi et al., 2012). Briefly, the major axis of each schistosomule body length was extracted from the raw output of WrmTrck and an average length was determined for the duration of the recording. Contractions were quantified by determining the number of episodes during which the worm body length deviated from the average by over 20%. S. mansoni protocols were approved by the Iowa State University Institutional Biosafety Committee.

[4] = target: T1, Sm.5HTR; format: cell-based; conditions: 10 μM for 30 minutes, washout, 5-HT response 1 hour later (FIGS. 11B-D)
Protocol: Colors correspond to drug identity in C&D. Data represent mean±s.e.m., n=3 (C-E).
To test putative irreversible antagonists, assays on suspension cells were performed one day post transfection. Cells in a T-75 flask were trypsinized (0.25% w/v) and transferred to a 14 mL tube, centrifuged at 300 RCF, and resuspended in HBSS supplemented with 0.1% BSA, 20 mM HEPES. Compounds were added at 10 μM, and after 30 minutes incubation at room temperature cells were centrifuged (300 RCF, 5 minutes) and resuspended in fresh media. This wash step was repeated, and cells were resuspended in HBSS supplemented with 0.1% BSA, 20 mM HEPES and GloSensor reagent. […]

[5] = system: adult S. mansoni; assay: Movement assay of cultured adult S. mansoni (Example 2); format: cell-based; conditions: Schistosoma mansoni; for IC50: read-out: IC50, inhibition of serotonin evoked schistosome movement
Source text: (§4) Female Swiss Webster mice infected with S. mansoni cerceria (NMRI strain) were sacrificed 49 days post infection by CO2 euthanasia. Adult schistosomes were recovered by perfusion with a solution of 0.85% sodium chloride+0.75% sodium citrate and dissection of the mesenteric vasculature. Harvested schistosomes were washed in RPMI 1640 Medium with GlutaMAX+5% heat inactivated FBS (Gibco) and Penicillin-Streptomycin (final concentration 100 units/mL, ThermoFisher cat #15140122).
For movement assays, worms were cultured 37° C./5% CO2 in vented 100×25 mm petri dishes (ThermoFisher cat #4031) containing 50 mL of media and used between 1-3 days after harvesting. Prior to assessing worm movement, individuals were transferred to a six well dish (4-5 individuals per well) containing 3 mL drug solution in RPMI 1640 supplemented with HEPES (25 mM) and MS (5%). Videos were recorded using a Zeiss Discovery v20 stereomicroscope and a QiCAM 12-bit cooled color CCD camera controlled by metamorph imaging software (version 7.8.1.0). 1 minute recordings were acquired at 4 frames per second, saved as a .TIFF stack, and movement was analyzed using ImageJ software as described in (PMID: 27187180, PMID: 27397763).

[6] = target: Sm.5HTR (Schistosoma mansoni, UniProt A0A173FEI8); assay: cell-based
Protocol: HEK293 cells (ATCC CRL-1573.3) were cultured in growth media consisting of DMEM supplemented with GlutaMAX (Gibco cat #10566016)+10% heat inactivated fetal bovine serum and penicillin-streptomycin (100 units/mL, ThermoFisher). Stable cell lines for the pGloSensor-22F cAMP Plasmid (Promega) and schistosome 5HTRs in pcDNA3.1(−) were selected with hygromycin (200 μg/mL) and G418 (400 μg/mL). The correct identity of each stably expressed sequence was verified by isolating total RNA from each stable line (TRIzol Reagent, Ambion) and amplifying the sequence of interest with gene specific primers flanking the 5′ and 3′ regions of the cds (SuperScript® III One-Step RT-PCR System, Invitrogen). PCR products were ligated into a TA cloning vector (pGEM-T Easy, Promega) and sequenced.
HEK293 lines stably expressing both the 22F cAMP sensor and Sm.5HTR were cultured in growth media supplemented with 10% dialyzed FRS. For cAMP assays in 96 well format, cells cultured in T-75 flasks were trypsinized (TrypLE Express, Gibco) and plated in solid white 96 well plates (Costar cat #3917) the day prior to assay at a density of 2.5×10^4 cells/well. The following day media was removed and replaced with assay buffer consisting of HBSS buffered with HEPES (20 mM, pH 7.4)+BSA (0.1% w/v) and D-luciferin sodium salt (1 mg/mL, Gold Biotechnology). Plates were equilibrated at room temperature for 1 hour, at which point 3-Isobutyl-1-methylxanthine (IBMX 200 μM, Sigma Aldrich) was added. Plates were equilibrated a further 30 minutes prior to test compound addition. […] Readings performed in 384 well format were modified so that cells were assayed in suspension. Cells were grown to 70% confluence in T-75 flasks, trypsinized and pelleted (300 RCF×5 minutes). Media was removed and cells were resuspended in 25 mL assay buffer supplemented with IBMX (200 μM). A 96 channel semi-automated pipet (Eppendorf epMotion 96) delivered 55 μL of cell suspension per well (5000 cells/well) into solid white 384 plates (Corning 3574).

[7] = system: adult schistosomes; assay: Egg laying assay, adult schistosome pairs in vitro; format: cell-based, Schistosoma mansoni; conditions: serotonin 100 μM, forskolin 100 μM, LSD 10 μM, nuciferine 10 μM, ergotamine 5 μM (FIG. 19F); eggs per worm pair/day over five days
Source text: as §4
For egg laying assays, adult schistosomes were transferred to 24 well plates the day after harvesting from mice (5 worm pairs in 2 mL media per well). Eggs were counted under a stereomicroscope daily, after which worms were transferred to a new well with fresh drug containing media. Egg counts were recorded for five days, and data processed as the mean number of eggs laid per worm pair/day. Measurements of egg dimensions were quantified using the “analyze>measure” function in ImageJ to record the length and width of individual eggs.

[8] = target: Sm.5HTRL (Schistosoma mansoni, UniProt A0A173FEI8); assay: GloSensor cAMP assay, HEK293 cells transiently transfected with Sm.5HTRL; format: cell-based
Protocol: as §1, §2

T1 sequence (G4V5G4 entry or part of it): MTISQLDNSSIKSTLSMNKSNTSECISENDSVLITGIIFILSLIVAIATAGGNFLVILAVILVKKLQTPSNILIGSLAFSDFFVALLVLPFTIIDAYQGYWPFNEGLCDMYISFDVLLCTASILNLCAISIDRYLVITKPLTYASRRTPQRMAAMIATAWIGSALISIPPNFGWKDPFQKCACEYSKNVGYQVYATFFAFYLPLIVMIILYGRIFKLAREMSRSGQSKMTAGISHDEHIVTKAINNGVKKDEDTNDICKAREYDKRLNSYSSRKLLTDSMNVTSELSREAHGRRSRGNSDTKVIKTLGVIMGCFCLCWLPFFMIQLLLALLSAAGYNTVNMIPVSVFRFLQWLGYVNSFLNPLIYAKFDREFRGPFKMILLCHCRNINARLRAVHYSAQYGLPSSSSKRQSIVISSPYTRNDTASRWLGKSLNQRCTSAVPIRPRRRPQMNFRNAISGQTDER
T2 sequence (P34969 1-445 isoform P34969-2): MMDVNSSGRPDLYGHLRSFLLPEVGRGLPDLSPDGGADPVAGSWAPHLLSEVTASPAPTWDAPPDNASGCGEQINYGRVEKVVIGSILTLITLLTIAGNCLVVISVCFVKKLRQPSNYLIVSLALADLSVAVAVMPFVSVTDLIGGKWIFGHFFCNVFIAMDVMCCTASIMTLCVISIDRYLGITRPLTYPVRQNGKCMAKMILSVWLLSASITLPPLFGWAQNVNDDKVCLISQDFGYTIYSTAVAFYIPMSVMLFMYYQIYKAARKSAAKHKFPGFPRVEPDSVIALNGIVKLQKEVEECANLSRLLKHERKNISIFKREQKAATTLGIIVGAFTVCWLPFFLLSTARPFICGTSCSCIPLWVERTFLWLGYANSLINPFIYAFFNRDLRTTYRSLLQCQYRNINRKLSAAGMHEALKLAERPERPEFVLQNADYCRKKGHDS
Sequence of Sm.5HTRL (A0A173FEI8 entry or part of it): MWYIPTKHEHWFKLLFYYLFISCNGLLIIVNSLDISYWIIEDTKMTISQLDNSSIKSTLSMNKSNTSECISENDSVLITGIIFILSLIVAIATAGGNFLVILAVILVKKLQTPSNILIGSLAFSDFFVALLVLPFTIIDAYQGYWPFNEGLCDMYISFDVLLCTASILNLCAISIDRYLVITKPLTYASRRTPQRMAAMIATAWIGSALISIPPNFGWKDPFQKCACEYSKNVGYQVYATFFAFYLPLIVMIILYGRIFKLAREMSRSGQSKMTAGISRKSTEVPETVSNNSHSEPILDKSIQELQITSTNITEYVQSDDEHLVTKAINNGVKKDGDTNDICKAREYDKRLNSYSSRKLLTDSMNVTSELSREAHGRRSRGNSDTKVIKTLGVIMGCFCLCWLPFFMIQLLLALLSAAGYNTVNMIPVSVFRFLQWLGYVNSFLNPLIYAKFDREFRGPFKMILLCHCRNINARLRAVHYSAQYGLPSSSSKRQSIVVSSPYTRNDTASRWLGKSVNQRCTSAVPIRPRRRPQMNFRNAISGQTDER
Sequence of Sm.5HTR (Schistosoma mansoni, UniProt A0A173FEI8) (A0A173FEI8 entry or part of it): as above

For `COc1cc2c(cc1OC)C1CC(=O)C(CC(C)C)CN1CC2` (stereo not drawn) [tetrabenazine], the “selectivity Sm.5HTR versus Hs.5HT7R (IC50 (Hs.5HT7R)/IC50 (Sm.5HTR)), in words” value [1] was “selectivity for Sm.5HTR retained”, the “potency (IC50) at Sm.5HTR, lower right quadrant of FIG. 13” value [1] was “sub-μM potency” and the “potency (IC50) at Hs.5HT7R, lower right quadrant of FIG. 13” value [2] was “supra-μM potency”. For the same compound, the inhibition at 100 µM ([3]; read-out: inhibition of 5-HT evoked contractility) was about 50%.

`CN1C[C@H](CNC(=O)OCc2ccccc2)C[C@@H]2c3cccc4c3c(cn4C)C[C@H]21` [metergoline] was tested, and the “agonist efficacy at Sm.5HTR, in words” value ([1]; FIG. 10A) was “no efficacy”, the Kb ([1]; antagonism of 5-HT evoked cAMP accumulation, FIG. 10F, read-out: affinity constants (KB), Schild regression analysis) was 4530 nM and the “nature of antagonism: right-shift in the 5-HT dose-response relationship” value ([1]; increasing doses of ligand, FIGS. 10B-D) was “competitive antagonism”. For the same compound, the “persistence of Sm.5HTR inhibition after antagonist wash-out” value (from here on “persistence of Sm.5HTR inhibition”) [4] was “long-lasting inhibition”.

In the case of `CSc1ccc2c(c1)C(N1CCN(C)CC1)Cc1ccccc1S2` (stereo not drawn) [methiothepin], the “antagonism of 5-HT stimulated cAMP generation” value ([1]; methiothepin 10 μM preincubation, 5-HT 10 μM, IBMX 200 μM (FIG. 2G)) is reported as “antagonism of 5-HT stimulated cAMP generation” and the “persistence of Sm.5HTR inhibition” value [4] is reported as “long-lasting inhibition”.

With `CC(C)C[C@H]1C(=O)N2CCC[C@H]2[C@]2(O)O[C@](NC(=O)[C@@H]3C=C4c5cccc6[nH]c(Br)c(c56)C[C@H]4N(C)C3)(C(C)C)C(=O)N12` [bromocriptine] the “higher selectivity for the parasitic 5-HT receptor” value ([1]; Sm.5HTR over Hs.5HT7R) was “about 10 fold”, the “potency (IC50) at Sm.5HTR, lower right quadrant of FIG. 13” value [1] was “sub-μM potency” and the “potency (IC50) at Hs.5HT7R, lower right quadrant of FIG. 13” value [2] was “supra-μM potency”. It also gave an IC50 [3] of at most 1000 nM and an IC50 [5] of 251 ± 67 nM.

For `COc1ccc2cc1Oc1ccc(cc1)C[C@H]1c3cc(c(OC)cc3CCN1C)Oc1c(OC)c(OC)cc3c1[C@H](C2)N(C)CC3` [tetrandrine], the “potency (IC50) at Sm.5HTR, lower right quadrant of FIG. 13” value [1] was “sub-μM potency”, the “potency (IC50) at Hs.5HT7R, lower right quadrant of FIG. 13” value [2] was “supra-μM potency” and the IC50 [3] was at most 1000 nM.

For `CCN(CC)C(=O)[C@@H]1C=C2c3cccc4[nH]c(Br)c(c34)C[C@H]2N(C)C1` [BOL-148, 2-bromo-lysergic acid diethylamide], the IC50 ([6]; 5-HT 500 nM, read-out: Sm.5HTR IC50 (antagonist)) was 100 ± 20 nM, the “agonist activity at Sm.5HTR, in words” value ([6]; FIG. 18C) was “Agonist activity is eliminated” and the IC50 [5] was 29 ± 23 nM. For the same compound, the “decrease of egg laying” value [7] was “no effect”.

For `NCCc1c[nH]c2ccc(O)cc12` [5-HT, Serotonin], the EC50 ([8]; 5-HT dose response, FIG. 2H, read-out: EC50, activation of Sm.5HTRL) was 200 ± 30 nM, the “greater sensitivity of Sm.5HTRL compared with Sm.5HTR” value ([8]; ratio of 5-HT EC50) was “about 10 fold” and the EC50 ([5]; FIG. 19B, read-out: EC50, stimulation of adult schistosome movement) was 52000 ± 2000 nM. For the same compound, the “decrease of egg laying” value [7] was 83%.

With `Cc1nc2n(c(=O)c1CCN1CCC(c3noc4cc(F)ccc34)CC1)CCCC2` [risperidone] the “persistence of Sm.5HTR inhibition” value [4] was “long-lasting inhibition”.
